Where a name gives a salt, the structure may show the parent alone.
How the values were obtained:
[1] = system: IL-17 production by CD4 T cells; test: Human Th17 assay; type: cell-based; settings: IL-17 production by human CD4 T cells
Protocol: The human Th17 assay tests the effect of RORγt modulatory compounds on IL-17 production by CD4 T cells under conditions which favor Th17 differentiation. Total CD4^+ T cells were isolated from the peripheral blood mononuclear cells (PBMC) of healthy donors using a CD4^+ T cell isolation kit II, following the manufacturer's instructions (Miltenyi Biotec). […] 50 μL of compound at titrated concentrations in DMSO were added into each well at final DMSO concentration at 0.2%. Cells were incubated for 1 hour, then 50 μL of Th17 cell differentiation medium was added to each well. The final concentrations of antibodies and cytokines (R&D Systems) in differentiation medium were: 3×10^6/mL anti-CD3/CD28 beads (prepared using human T cell activation/expansion kit, Miltenyi Biotec), 10 μg/mL anti-IL4, 10 μg/mL anti-IFNγ, 10 ng/mL IL1β, 10 ng/mL IL23, 50 ng/mL IL6, 3 ng/mL TGFβ and 20 U/mL IL2. Cells were cultured at 37° C. and 5% CO2 for 3 days. Supernatants were collected and the accumulated IL-17 in culture was measured by using MULTI-SPOT® Cytokine Plate following manufacture's instruction (Meso Scale Discovery). The plate was read using Sector Imager 6000, and IL-17 concentration was extrapolated from the standard curve. The IC50s were determined by GraphPad.

[2] = target: T1, human RORγt ligand binding domain (RORγt LBD) (Homo sapiens, UniProt P51449); test: RORγt ThermoFluor assay (ligand binding affinity from protein thermal stability)
T1 construct: His-tag (N); TurboTEV protease cleavage site (ENLYFQG) (N); made in house; host or cells: E. coli (pHIS1, modified pET vector)
T1 sequence (P51449 with tags, fused parts or gaps): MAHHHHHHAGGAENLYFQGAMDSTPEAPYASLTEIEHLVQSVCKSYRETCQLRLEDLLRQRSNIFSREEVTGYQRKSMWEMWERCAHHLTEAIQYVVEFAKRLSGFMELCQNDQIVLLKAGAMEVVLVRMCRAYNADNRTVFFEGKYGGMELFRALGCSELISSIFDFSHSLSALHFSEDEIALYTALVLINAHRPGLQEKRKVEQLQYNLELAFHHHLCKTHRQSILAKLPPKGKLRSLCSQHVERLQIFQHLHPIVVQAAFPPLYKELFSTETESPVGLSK
Protocol: This approach is applicable to a wide variety of systems, and rigorous in theoretical interpretation through quantitation of equilibrium binding constants (KD).
The shift in the melting point described as a ΔTm is proportional to the concentration and affinity of the ligand.
RORγt ThermoFluor® Assay Construct
Protein and compound solutions are dispensed into black 384-well polypropylene PCR microplates (Abgene) and overlayed with silicone oil (1 μL, Fluka, type DC 200) to prevent evaporation.
Bar-coded assay plates are robotically loaded onto a thermostatically controlled PCR-type thermal block and then heated at a typical ramp-rate of 1° C./min for all experiments. Fluorescence was measured by continuous illumination with UV light (Hamamatsu LC6) supplied via fiber optic and filtered through a band-pass filter (380-400 nm; >6 OD cutoff). Fluorescence emission of the entire 384-well plate was detected by measuring light intensity using a CCD camera (Sensys, Roper Scientific) filtered to detect 500±25 nm, resulting in simultaneous and independent readings of all 384 wells. Images were collected at each temperature, and the sum of the pixel intensity in a given area of the assay plate was recorded versus temperature. Reference wells contained RORγt without compounds, and the assay conditions were as follows: • 0.065 mg/mL RORγt • 60 μM 1,8-ANS • 100 mM Hepes, pH 7.0 • 10 mM NaCl • 2.5 mM GSH • 0.002% Tween-20
Project compounds were arranged in a pre-dosed mother plate (Greiner Bio-one) wherein compounds are serially diluted in 100% DMSO by 1:2 from a high concentration of 10 mM over 12 columns within a series (column 12 is a reference well containing DMSO, no compound). The compounds were robotically dispensed directly into assay plates (1×=[…]) using a Hummingbird capillary liquid handling instrument (Digilab). Following compound dispense, protein and dye in buffer was added to achieve the final assay volume of 3 μL, followed by 1 μL of silicone oil.

[3] = target: T2, human RORγt LBD (Homo sapiens, UniProt P51449); test: RORγt (LBD) reporter assay in HEK293T cells; type: cell-based; settings: for inhibition at 6 µM: HEK-293T, read-out: RORγt (LBD) Reporter Assay, % inhibition @ 6 μM, 6 μM compound
T2 construct: expressed in transfected cells; host or cells: HEK293T
T2 sequence (P51449 258-518): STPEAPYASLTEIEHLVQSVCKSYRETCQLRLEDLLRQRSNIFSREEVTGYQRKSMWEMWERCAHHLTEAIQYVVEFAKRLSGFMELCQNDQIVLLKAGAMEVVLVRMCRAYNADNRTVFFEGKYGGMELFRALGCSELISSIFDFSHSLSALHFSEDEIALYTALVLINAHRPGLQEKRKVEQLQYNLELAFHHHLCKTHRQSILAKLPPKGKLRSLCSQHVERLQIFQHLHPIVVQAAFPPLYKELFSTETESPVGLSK
Excerpt: RORγt (LBD) Reporter Assay
Cells used in the assay were co-transfected with two constructs. The first construct, pBIND-RORγt LBD, contained the wild type human RORγt LBD fused to the DNA binding domain of the GAL4 protein. The second construct, pGL4.31 (Promega Cat no. C935A), contained multiple GAL4 responsive DNA elements upstream of firefly luciferase. […] The mutant construct was called pBIND-RORγt-AF2.
The pBIND vector contains the GAL4 DNA Binding Domain (GAL4 DBD) and the renilla luciferase gene under control of the SV40 promoter. Renilla luciferase expression serves as a control for transfection efficiency and cell viability.
The reporter assay was performed by transiently transfecting HEK293T cells with 5 μg of pBIND-RORγt LBD or pBIND-RORγt LBD-AF2 and 5 μg pGL4.31 (Promega Cat no. C935A) using Fugene 6 (Invitrogen Cat no. E2691) at a 1:6 ratio of DNA:Fugene 6 in a T-75 flask in which cells were at least 80% confluent. Twenty four hours after bulk transfection, cells were plated into 96-well plates at 50,000 cells/well in phenol-red free DMEM containing 5% Lipid Reduced FCS and Pen/Strep. Six hours after plating, cells were treated with compounds for 24 hours. Media was removed and cells were lysed with 50 μL 1× Glo Lysis Buffer (Promega). Dual Glo Luciferase Reagent (50 μL/well) was then added and firefly luciferase luminescence was read on an Envision after a ten minute incubation. Finally, Stop and Glo reagent (50 μL/well) was added and renilla luciferase luminescence was read on an Envision after a ten minute incubation. […] Agonist compounds increase RORγt-driven luciferase expression, and antagonist or inverse agonist compounds decrease luciferase expression.

| SMILES | IC50 ([1]; Homo sapiens, CD4+ T) | Kd [2] | IC50 [3] | inhibition at 6 µM [3] | IC50 [1] | RORγt (LBD) Reporter Assay, % inhibition @ 6 μM ([3]; 6 μM compound, 6 µM) |
| --- | --- | --- | --- | --- | --- | --- |
| CCc1nc2ccc(C(O)(c3cnnn3C)c3cnc(C)n3C)cc2c(Cl)c1Cc1ccc(C(F)(F)F)cc1 (single isomer, unassigned) [Example 25b, (4-Chloro-2-ethyl-3-(4-(trifluoromethyl)benzyl)quinolin-6-yl)(1,2-dimethyl-1H-imidazol-5-yl)(1-methyl-1H-1,2,3-triazol-5-yl)methanol] | 2.1 nM | – | – | – | – | – |
| COc1nc2ccc(C(N)(c3ccc(Cl)cc3)c3cncn3C)cc2c(Cl)c1Cc1ccc(-n2cccn2)cc1 (single isomer, unassigned) [Example 118c, (3-(4-(1H-Pyrazol-1-yl)benzyl)-4-chloro-2-methoxyquinolin-6-yl)(4-chlorophenyl)(1-methyl-1H-imidazol-5-yl)methanamine•TFA] | – | – | – | – | 50 nM | – |
| CNC(c1ccc2nc(OC)c(Cc3ccc(C(F)(F)F)cc3)c(Cl)c2c1)(c1ccc(C)nc1C)c1cnnn1C (single isomer, unassigned) [Example 121b, 1-(4-Chloro-2-methoxy-3-(4-(trifluoromethyl)benzyl)quinolin-6-yl)-1-(2,6-dimethylpyridin-3-yl)-N-methyl-1-(1-methyl-1H-1,2,3-triazol-5-yl)methanamine•TFA] | – | 370 nM | 410 nM | – | – | – |
| CNC(c1ccc2nc(OC)c(Cc3ccc(C(F)(F)F)cc3)c(Cl)c2c1)(c1ccc(C)nc1C)c1cnnn1C (single isomer, unassigned) [Example 121c, 1-(4-Chloro-2-methoxy-3-(4-(trifluoromethyl)benzyl)quinolin-6-yl)-1-(2,6-dimethylpyridin-3-yl)-N-methyl-1-(1-methyl-1H-1,2,3-triazol-5-yl)methanamine•TFA] | – | 130 nM | 220 nM | – | – | – |
| COc1nc2ccc(C(c3ccc(C)nc3C)(c3cnnn3C)N(C)C)cc2c(Cl)c1Cc1ccc(C(F)(F)F)cc1 (single isomer, unassigned) [Example 122b, 1-(4-Chloro-2-methoxy-3-(4-(trifluoromethyl)benzyl)quinolin-6-yl)-1-(2,6-dimethylpyridin-3-yl)-N,N-dimethyl-1-(1-methyl-1H-1,2,3-triazol-5-yl)methanamine•TFA] | – | > 83000 nM | 1400 nM | – | – | – |
| COc1nc2ccc(C(c3ccc(C)nc3C)(c3cnnn3C)N(C)C)cc2c(Cl)c1Cc1ccc(C(F)(F)F)cc1 (single isomer, unassigned) [Example 122c, 1-(4-Chloro-2-methoxy-3-(4-(trifluoromethyl)benzyl)quinolin-6-yl)-1-(2,6-dimethylpyridin-3-yl)-N,N-dimethyl-1-(1-methyl-1H-1,2,3-triazol-5-yl)methanamine•TFA] | – | 2.2 nM | 87 nM | – | – | – |
| COc1nc2ccc(C(O)(c3oc(C)nc3C)c3cnnn3C)cc2c(Cl)c1Cc1ccc(C(F)(F)F)cc1 (single isomer, unassigned) [Example 156b, (4-chloro-2-methoxy-3-(4-(trifluoromethyl)benzyl)quinolin-6-yl)(2,4-dimethyloxazol-5-yl)(1-methyl-1H-1,2,3-triazol-5-yl)methanol] | – | 75 nM | 87 nM | 98% | – | – |
| COc1nc2ccc(C(O)(c3oc(C)nc3C)c3cnnn3C)cc2c(Cl)c1Cc1ccc(C(F)(F)F)cc1 (single isomer, unassigned) [Example 156c, (4-chloro-2-methoxy-3-(4-(trifluoromethyl)benzyl)quinolin-6-yl)(2,4-dimethyloxazol-5-yl)(1-methyl-1H-1,2,3-triazol-5-yl)methanol] | – | 0.59 nM | 1.9 nM | – | – | 99% |
| COc1nc2ccc(C(O)(c3cnc(C)n3C)c3cnc(C)n3C)cc2c(Cl)c1Cc1ccc(-n2cccn2)cc1 [Example 13, (3-(4-(1H-Pyrazol-1-yl)benzyl)-4-chloro-2-methoxyquinolin-6-yl)bis(1,2-dimethyl-1H-imidazol-5-yl)methanol] | – | – | – | – | 100 nM | – |

Continued, in another order:

| IC50 ([1]; Homo sapiens, CD4+ T) | Kd [2] | IC50 [3] | inhibition at 6 µM [3] | SMILES | IC50 [1] | RORγt (LBD) Reporter Assay, % inhibition @ 6 μM ([3]; 6 μM compound, 6 µM) |
| --- | --- | --- | --- | --- | --- | --- |
| – | 16000 nM | 1100 nM | 81% | COc1nc2ccc(C(O)(c3ccc(C(F)(F)F)cc3)c3cccnc3)cc2c(Cl)c1Cc1ccc(-n2cccn2)cc1 (single isomer, unassigned) [Example 162b] | – | – |
| – | 0.85 nM | 450 nM | 61% | COc1nc2ccc(C(O)(c3ccc(C)nc3C)c3cnnn3C)cc2c(Cl)c1Cc1ccc(F)cc1 (centres unmarked) [Example 48a, (4-Chloro-3-(4-fluorobenzyl)-2-methoxyquinolin-6-yl)(2,6-dimethylpyridin-3-yl)(1-methyl-1H-1,2,3-triazol-5-yl)methanol] | – | – |
| – | 1.7 nM | 52 nM | 84% | COc1nc2ccc(C(O)(c3ccc(C)nc3C)c3cnnn3C)cc2c(C#N)c1Cc1ccc(F)cc1 (centres unmarked) [Example 49a, 6-((2,6-Dimethylpyridin-3-yl)(hydroxy)(1-methyl-1H-1,2,3-triazol-5-yl)methyl)-3-(4-fluorobenzyl)-2-methoxyquinoline-4-carbonitrile] | – | – |
| – | 53 nM | 65 nM | 101% | COc1nc2ccc(C(O)(c3ccccn3)c3cncn3C)cc2c(Cl)c1Cc1ccc(C(F)(F)F)cc1 (centres unmarked) [Example 68, (4-Chloro-2-methoxy-3-(4-(trifluoromethyl)benzyl)quinolin-6-yl)(1-methyl-1H-imidazol-5-yl)(pyridin-2-yl)methanol•TFA] | – | – |
| – | 120 nM | 430 nM | 94% | COc1nc2ccc(C(O)(c3ccc(Cl)cc3)c3cncn3C)cc2c(Cl)c1Cc1cccc(C#N)c1 (centres unmarked) [Example 70, 3-((4-Chloro-6-((4-chlorophenyl)(hydroxy)(1-methyl-1H-imidazol-5-yl)methyl)-2-methoxyquinolin-3-yl)methyl)benzonitrile•TFA] | – | – |

From patent publication US9284308B2, “Methylene linked quinolinyl modulators of RORγt” (Janssen Pharmaceutica NV, priority 2013, dated 2016)
